Measured values as given in the supplement of paper PMC10307832.

Assays:
Assay in all cases: relative viability (nuclei count vs DMSO), 5 days (fraction); higher = more cells survive
Neratinib + Luminespib = compound: CCOc1cc2ncc(C#N)c(Nc3ccc(OCc4ccccn4)c(Cl)c3)c2cc1NC(=O)/C=C/CN(C)C [Neratinib] + CCNC(=O)c1noc(-c2cc(C(C)C)c(O)cc2O)c1-c1ccc(CN2CCOCC2)cc1 [Luminespib] (partner 0.01 µM)
Summary of the method: (§1)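 After 5 days of treatment, lung cancer cells in 1536-well plates were fixed and stained in a single step (final 0.05% Triton X-100, 1% formaldehyde, 1 ug/ml Hoechst) and their nuclei counted on 4× images. Treatment had been applied by pin tool the day after seeding as one drug alone or as a fixed anchor-drug dose with five library-drug doses (not always all listed) in √10 steps. Relative viability is the nuclei count of treated wells divided by that of vehicle wells, and values are medians of duplicate plates.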

Neratinib + Palbociclib = compound: CCOc1cc2ncc(C#N)c(Nc3ccc(OCc4ccccn4)c(Cl)c3)c2cc1NC(=O)/C=C/CN(C)C [Neratinib] + CC(=O)c1c(C)c2cnc(Nc3ccc(N4CCNCC4)cn3)nc2n(C2CCCC2)c1=O [Palbociclib] (partner 0.5 µM)
Summary of the method: as §1

Neratinib + Pictilisib = compound: CCOc1cc2ncc(C#N)c(Nc3ccc(OCc4ccccn4)c(Cl)c3)c2cc1NC(=O)/C=C/CN(C)C [Neratinib] + CS(=O)(=O)N1CCN(Cc2cc3nc(-c4cccc5[nH]ncc45)nc(N4CCOCC4)c3s2)CC1 [Pictilisib] (partner 1 µM)
Summary of the method: as §1

Neratinib + OSI-027 = compound: CCOc1cc2ncc(C#N)c(Nc3ccc(OCc4ccccn4)c(Cl)c3)c2cc1NC(=O)/C=C/CN(C)C [Neratinib] + COc1cccc2cc(-c3nc([C@H]4CC[C@H](C(=O)O)CC4)n4ncnc(N)c34)[nH]c12 [OSI-027] (partner 0.5 µM)
Summary of the method: as §1

LCLC-103H
relative viability (Neratinib + Luminespib; first compound 0.01 µM): 0.921
relative viability (Neratinib + Luminespib; first compound 0.03162 µM): 0.981
relative viability (Neratinib + Luminespib; first compound 0.1 µM): 0.883
relative viability (Neratinib + Luminespib; first compound 0.3162 µM): 0.93
relative viability (Neratinib + Luminespib; first compound 1 µM): 0.647
relative viability (Neratinib + Palbociclib; first compound 0.01 µM): 0.517
relative viability (Neratinib + Palbociclib; first compound 0.03162 µM): 0.478
relative viability (Neratinib + Palbociclib; first compound 0.1 µM): 0.457
relative viability (Neratinib + Palbociclib; first compound 0.3162 µM): 0.474
relative viability (Neratinib + Palbociclib; first compound 1 µM): 0.46
relative viability (Neratinib + Pictilisib; first compound 0.01 µM): 0.597
relative viability (Neratinib + Pictilisib; first compound 0.03162 µM): 0.668
relative viability (Neratinib + Pictilisib; first compound 0.1 µM): 0.575
relative viability (Neratinib + Pictilisib; first compound 0.3162 µM): 0.582
relative viability (Neratinib + Pictilisib; first compound 1 µM): 0.587
relative viability (Neratinib + OSI-027; first compound 0.01 µM): 0.562
relative viability (Neratinib + OSI-027; first compound 0.03162 µM): 0.48
relative viability (Neratinib + OSI-027; first compound 0.1 µM): 0.47
relative viability (Neratinib + OSI-027; first compound 0.3162 µM): 0.463
relative viability (Neratinib + OSI-027; first compound 1 µM): 0.394

LOU-NH91
relative viability (Neratinib + Luminespib; first compound 0.01 µM): 0.38
relative viability (Neratinib + Luminespib; first compound 0.03162 µM): 0.328
relative viability (Neratinib + Luminespib; first compound 0.1 µM): 0.338
relative viability (Neratinib + Luminespib; first compound 0.3162 µM): 0.331
relative viability (Neratinib + Luminespib; first compound 1 µM): 0.287
relative viability (Neratinib + Palbociclib; first compound 0.01 µM): 0.504
relative viability (Neratinib + Palbociclib; first compound 0.03162 µM): 0.547
relative viability (Neratinib + Palbociclib; first compound 0.1 µM): 0.557
relative viability (Neratinib + Palbociclib; first compound 0.3162 µM): 0.462
relative viability (Neratinib + Palbociclib; first compound 1 µM): 0.536
relative viability (Neratinib + Pictilisib; first compound 0.01 µM): 0.53
relative viability (Neratinib + Pictilisib; first compound 0.03162 µM): 0.496
relative viability (Neratinib + Pictilisib; first compound 0.1 µM): 0.483
relative viability (Neratinib + Pictilisib; first compound 0.3162 µM): 0.484
relative viability (Neratinib + Pictilisib; first compound 1 µM): 0.469
relative viability (Neratinib + OSI-027; first compound 0.01 µM): 0.706
relative viability (Neratinib + OSI-027; first compound 0.03162 µM): 0.715
relative viability (Neratinib + OSI-027; first compound 0.1 µM): 0.471
relative viability (Neratinib + OSI-027; first compound 0.3162 µM): 0.46
relative viability (Neratinib + OSI-027; first compound 1 µM): 0.408

NCI-H1650
relative viability (Neratinib + Luminespib; first compound 0.01 µM): 0.201
relative viability (Neratinib + Luminespib; first compound 0.03162 µM): 0.186
relative viability (Neratinib + Luminespib; first compound 0.1 µM): 0.204
relative viability (Neratinib + Luminespib; first compound 0.3162 µM): 0.228
relative viability (Neratinib + Luminespib; first compound 1 µM): 0.203
relative viability (Neratinib + Palbociclib; first compound 0.01 µM): 0.349
relative viability (Neratinib + Palbociclib; first compound 0.03162 µM): 0.313
relative viability (Neratinib + Palbociclib; first compound 0.1 µM): 0.3
relative viability (Neratinib + Palbociclib; first compound 0.3162 µM): 0.262
relative viability (Neratinib + Palbociclib; first compound 1 µM): 0.276
relative viability (Neratinib + Pictilisib; first compound 0.01 µM): 0.565
relative viability (Neratinib + Pictilisib; first compound 0.03162 µM): 0.682
relative viability (Neratinib + Pictilisib; first compound 0.1 µM): 0.513
relative viability (Neratinib + Pictilisib; first compound 0.3162 µM): 0.531
relative viability (Neratinib + Pictilisib; first compound 1 µM): 0.517
relative viability (Neratinib + OSI-027; first compound 0.01 µM): 0.557
relative viability (Neratinib + OSI-027; first compound 0.03162 µM): 0.598
relative viability (Neratinib + OSI-027; first compound 0.1 µM): 0.435
relative viability (Neratinib + OSI-027; first compound 1 µM): 0.37

NCI-H322M
relative viability (Neratinib + Luminespib; first compound 0.01 µM): 0.852
relative viability (Neratinib + Luminespib; first compound 0.03162 µM): 0.796
relative viability (Neratinib + Luminespib; first compound 0.1 µM): 0.701
relative viability (Neratinib + Luminespib; first compound 0.3162 µM): 0.392
relative viability (Neratinib + Luminespib; first compound 1 µM): 0.352
relative viability (Neratinib + Palbociclib; first compound 0.01 µM): 0.468
relative viability (Neratinib + Palbociclib; first compound 0.03162 µM): 0.475
relative viability (Neratinib + Palbociclib; first compound 0.1 µM): 0.417
relative viability (Neratinib + Palbociclib; first compound 0.3162 µM): 0.376
relative viability (Neratinib + Palbociclib; first compound 1 µM): 0.41
relative viability (Neratinib + Pictilisib; first compound 0.01 µM): 0.528
relative viability (Neratinib + Pictilisib; first compound 0.03162 µM): 0.455
relative viability (Neratinib + Pictilisib; first compound 0.1 µM): 0.499
relative viability (Neratinib + Pictilisib; first compound 0.3162 µM): 0.333
relative viability (Neratinib + Pictilisib; first compound 1 µM): 0.327
relative viability (Neratinib + OSI-027; first compound 0.01 µM): 0.515
relative viability (Neratinib + OSI-027; first compound 0.03162 µM): 0.592
relative viability (Neratinib + OSI-027; first compound 0.1 µM): 0.519
relative viability (Neratinib + OSI-027; first compound 0.3162 µM): 0.365
relative viability (Neratinib + OSI-027; first compound 1 µM): 0.307

SW 1573
relative viability (Neratinib + Luminespib; first compound 0.01 µM): 0.235
relative viability (Neratinib + Luminespib; first compound 0.03162 µM): 0.196
relative viability (Neratinib + Luminespib; first compound 0.1 µM): 0.333
relative viability (Neratinib + Luminespib; first compound 0.3162 µM): 0.188
relative viability (Neratinib + Luminespib; first compound 1 µM): 0.132
relative viability (Neratinib + Palbociclib; first compound 0.01 µM): 0.382
relative viability (Neratinib + Palbociclib; first compound 0.03162 µM): 0.422
relative viability (Neratinib + Palbociclib; first compound 0.1 µM): 0.428
relative viability (Neratinib + Palbociclib; first compound 0.3162 µM): 0.289
relative viability (Neratinib + Palbociclib; first compound 1 µM): 0.217
relative viability (Neratinib + Pictilisib; first compound 0.01 µM): 0.523
relative viability (Neratinib + Pictilisib; first compound 0.03162 µM): 0.586
relative viability (Neratinib + Pictilisib; first compound 0.1 µM): 0.399
relative viability (Neratinib + Pictilisib; first compound 0.3162 µM): 0.508
relative viability (Neratinib + Pictilisib; first compound 1 µM): 0.249
relative viability (Neratinib + OSI-027; first compound 0.01 µM): 0.685
relative viability (Neratinib + OSI-027; first compound 0.03162 µM): 0.595
relative viability (Neratinib + OSI-027; first compound 0.1 µM): 0.542
relative viability (Neratinib + OSI-027; first compound 0.3162 µM): 0.544
relative viability (Neratinib + OSI-027; first compound 1 µM): 0.276

NCI-H1651
relative viability (Neratinib + Luminespib; first compound 0.01 µM): 0.723
relative viability (Neratinib + Luminespib; first compound 0.03162 µM): 1.32
relative viability (Neratinib + Luminespib; first compound 0.1 µM): 0.654
relative viability (Neratinib + Luminespib; first compound 0.3162 µM): 0.896
relative viability (Neratinib + Luminespib; first compound 1 µM): 0.546
relative viability (Neratinib + Palbociclib; first compound 0.01 µM): 0.542
relative viability (Neratinib + Palbociclib; first compound 0.03162 µM): 0.558
relative viability (Neratinib + Palbociclib; first compound 0.1 µM): 0.499
relative viability (Neratinib + Palbociclib; first compound 0.3162 µM): 0.45
relative viability (Neratinib + Palbociclib; first compound 1 µM): 0.467
relative viability (Neratinib + Pictilisib; first compound 0.01 µM): 0.661
relative viability (Neratinib + Pictilisib; first compound 0.03162 µM): 0.633
relative viability (Neratinib + Pictilisib; first compound 0.1 µM): 0.422
relative viability (Neratinib + Pictilisib; first compound 0.3162 µM): 0.449
relative viability (Neratinib + Pictilisib; first compound 1 µM): 0.343
relative viability (Neratinib + OSI-027; first compound 0.01 µM): 0.769
relative viability (Neratinib + OSI-027; first compound 0.03162 µM): 0.838
relative viability (Neratinib + OSI-027; first compound 0.1 µM): 0.627
relative viability (Neratinib + OSI-027; first compound 0.3162 µM): 0.564
relative viability (Neratinib + OSI-027; first compound 1 µM): 0.337

NCI-H2126
relative viability (Neratinib + Luminespib; first compound 0.01 µM): 0.932
relative viability (Neratinib + Luminespib; first compound 0.03162 µM): 0.853
relative viability (Neratinib + Luminespib; first compound 0.1 µM): 0.828
relative viability (Neratinib + Luminespib; first compound 0.3162 µM): 0.822
relative viability (Neratinib + Luminespib; first compound 1 µM): 0.464
relative viability (Neratinib + Palbociclib; first compound 0.01 µM): 0.33
relative viability (Neratinib + Palbociclib; first compound 0.03162 µM): 0.347
relative viability (Neratinib + Palbociclib; first compound 0.3162 µM): 0.344
relative viability (Neratinib + Palbociclib; first compound 1 µM): 0.309
relative viability (Neratinib + Pictilisib; first compound 0.03162 µM): 0.495
relative viability (Neratinib + Pictilisib; first compound 0.1 µM): 0.431
relative viability (Neratinib + Pictilisib; first compound 0.3162 µM): 0.414
relative viability (Neratinib + Pictilisib; first compound 1 µM): 0.365
relative viability (Neratinib + OSI-027; first compound 0.01 µM): 0.697
relative viability (Neratinib + OSI-027; first compound 0.03162 µM): 0.688
relative viability (Neratinib + OSI-027; first compound 0.1 µM): 0.69
relative viability (Neratinib + OSI-027; first compound 0.3162 µM): 0.649
relative viability (Neratinib + OSI-027; first compound 1 µM): 0.447
